The text below walks through data of US7687472B2, “Methods and compositions for treating hyperglycemic, hyperlipidemic, or hyperinsulinemic disorders” (Ohio University, priority 2004, dated 2010).

For assay [1], the system named is Akt. In words: Akt phosphorylation by Western blot in CHO-IR cells and 3T3-L1 adipocytes. Type of assay: cell-based. Particulars: CHO-IR cells or 3T3-L1 adipocytes; anti-phosphorylated Akt antibody. Here is the method: (§1) FIG. 6 illustrates that novel TGQ compounds stimulate IR and Akt phosphorylation in CHO-IR cells and Akt phosphorylation in 3T3-L1 fat cells. CHO-IR cells or 3T3-L1 adipocytes were induced under conditions as shown. Total protein was isolated from the cells and subjected SDS-PAGE and subsequently transferred to a […] membrane. The proteins on the membrane were detected by anti-phosphorylated IR or Akt antibodies. […] Thirty to 60 μg of total protein and the biotinylated protein marker was mixed with SDS sample buffer and heated at 95-100° C. for 5 minutes. Then, each sample and a marker were subjected to 8% SDS POLYACRYLAMIDE GEL ELECTROPHORESIS (SDS-PAGE). After electrophoresis, the proteins on the gel were transferred to a nitrocellulose. The nitrocellulose membrane was blocked, and then incubated with the desired primary antibody (specifically against either phosphorylated form of IR or Akt) overnight at 4° C. with gentle agitation. After overnight incubation, the membrane was washed, and then incubated with the HRP-conjugated secondary antibody for 1 hour at room temperature. Then, the membrane was washed, the proteins on the membrane were detected by a Western blotting LumiGLO system (Cell Signaling Tech, Inc) and finally visualized by exposing the membrane to an x-ray film in a cassette for a proper time, usually from 1 to 10 minutes.

Assay [2] has as its system Glut4. In words: Glut4 translocation by immunostaining and confocal microscopy in 3T3-L1 adipocytes. Particulars: FIG. 3. It counts as cell-based. As for the experimental part: FIG. 3 illustrates induced Glut4 translocation. 3T3-L1 adipocytes were either uninduced, or induced by 1 μM insulin, or 30 μM 6Cl-α-TGQ. The treated cells were immunostained with an anti-Glut4 antibody followed with the secondary antibody (Fluorescein (FITC)-conjugated affinipure F(ad′)2 fragment Donkey anti-Mouse IgG). The cells were then mounted for microscopic visualization. The immunostained cells were visualized with a Zeiss LSM510 confocal microscope at wavelength of 488 nm for excitation and 520 nm for emission.
The treated cells were immunostained with an anti-Glut4 antibody followed with the secondary antibody (Fluorescein (FITC)-conjugated affinipure F(ad′)2 fragment Donkey anti-Mouse IgG). The cells were then mounted for microscopic visualization. The immunostained cells were visualized with a Zeiss LSM510 confocal microscope at wavelength of 488 nm for excitation and 520 nm for emission.

Assay [3] deals with IR. In words: IR phosphorylation by Western blot in CHO-IR cells. Type of assay: cell-based. Conditions: anti-phosphorylated IR antibody. Here is the method:
as §1
Background: Immunoblotting shows a protein as a band on a membrane.

In assay [4] the test system is 3T3-L1 preadipocytes. Briefly: MDI-induced differentiation of 3T3-L1 preadipocytes into adipocytes, measured by glucose uptake. Type of assay: cell-based. Particulars: MDI plus 20 μM compound; ten days after induction; FIG. 4. As for the experimental part:
FIG. 4 illustrates adipocyte differentiation induced by MDI. […] Ten days after the induction, cells were assayed for their respective ability to take up glucose from the media by a radioactive glucose uptake assay. Each sample (condition) was in triplicate. The concept that adipocyte differentiation can be indirectly measured by glucose uptake was based on the observation that only differentiated adipocytes can take up glucose through a Glut4-mediated pathway while undifferentiated preadipocytes cannot.
To determine the effective concentration of the compounds of Formula I, II, or III to use in preventing adipogenesis in vitro, undifferentiated preadipocytes are incubated either with a differentiation-induction cocktail, comprised of 3-isobutyl-1-methylxanthine, dexamethasone, and insulin (MDI); or with MDI plus the test compound. After about 10 days MDI induces differentiation, which is clearly visible as the change from fibroblast-like preadipocytes to round-shaped, fat vesicle-containing adipocytes. […]
Ten days after the induction, cells were assayed for their respective ability to take up glucose from the media by a standard radioactive glucose uptake assay. […] The adipocyte differentiation can be measured by glucose uptake because only differentiated adipocyte can take up glucose through Glut4-mediated pathway while undifferentiated preadipocytes cannot.

In assay [5] the test system is 3T3-L1 adipocytes. Briefly: Glucose uptake ([3H] 2-deoxy-D-glucose) assay in 3T3-L1 adipocytes. Type of assay: cell-based. Particulars: for glucose transport inducing activity compared with α-PGG: α-PGG 30 μM. Here is the method:
Glucose uptake activity in cells may be analyzed by measuring the uptake of 2-deoxy-D-[3H] glucose using a standard assay. Confluent 3T3-L1 adipocytes grown in 12-well plates are washed twice with serum-free DMEM and incubated with 1 mL of the same medium at 37° C. for 2 h. The cells are washed 3 times with Krebs-Ringer-Hepes (KRP) buffer and incubated with 0.9 mL KRP buffer at 37° C. for 30 min. Insulin (positive control) or the compounds of Formula I, II, or III (experimentals) are then added at pre-determined concentrations and adipocytes are incubated at 37° C. for 15 min. Glucose uptake is initiated by addition of 0.1 mL KRP buffer and 37 MBq/L 2-deoxy-D-[^3H] glucose and 1 mmol/L glucose as final concentrations. After 10 min, glucose uptake is terminated by washing the cells 3 times with cold PBS. The cells are lysed with 0.7 mL of 1% Triton X-100 at 37° C. for 20 min. The radioactivity retained by the cell lysates is determined by a scintillation counter. The dosage that induces the maximal glucose uptake can be selected among the experimental samples.
6Cl-α-TGQ and 6Cl-β-TGQ were synthesized as described above. α-TGQ was synthesized using methods analogous to the preparation of 6Cl-α-TGQ (Examples 1 and 2) starting from commercially available 6-deoxy-D-glucose. Alpha-pentagalloylglucose (α-PGG) was obtained. 3T3-L1 preadipocytes grown in 24-well plates were induced by MDI until they were differentiated into adipocytes. Adipocytes were washed twice with serum-free DMEM and incubated with 0.5 ml of the same medium in 10% C02 at 37 ° C. for 2 hours. The cells were washed 3 times with Kerbs-Ringer-HEPES (KRP) buffer (136 mM NaCl, 4.7 mM KCl, 1.25 mM CaCl2, 1.25 mM MgSO4 and 10 mM sodium phosphate buffer at pH 7.4) and then incubated with 0.45 ml KRP buffer at 37 ° C. for 30 minutes. Glucose transport inducing agents were individually added to the cells at predetermined concentrations and each condition was duplicated or triplicated, then the adipocytes were incubated at 37 ° C. for 15 minutes. Glucose uptake was initiated by the addition of 0.1 ml of KPR buffer supplemented with 1 μCi/ml [^3H] 2-deoxy-D-glucose and 1 mM cold glucose as the final concentration to the cells. After 10 min, the medium was aspirated and the plates were washed with ice-cold PBS three times to terminate the induced glucose uptake. The cells were lysed with 0.45 ml of 1% triton X-100 at 37 ° C. for 20 min. The radioactivity taken up by the cells was determined in a solution of 0.4 ml of the cell lysates and 5 ml of scintillation liquid using a scintillation counter (Beckman Instruments).
6Br-α-TGQ and 6Br-β-TGQ were chemically synthesized using a preparation analogous to the preparation of 6Cl-TGQ (Examples 1, 2 and 3) starting from commercially available 6-bromo-D-glucose. 6Cl-α-TGQ was synthesized as described above. Alpha-pentagalloylglucose (α-PGG) was obtained. Confluent 3T3-L1 adipocytes were purchased from ATCC and grown in 12-well plates are washed twice with serum-free DMEM and incubated with 1 mL of the same medium at 37° C. for 2 h. The cells are washed 3 times with Krebs-Ringer-Hepes (KRP) buffer and incubated with 0.9 mL KRP buffer at 37° C. for 30 min.
Glucose uptake was initiated by addition of 0.1 mL KRP buffer and 37 MBq/L 2-deoxy-D-[^3H] glucose and 1 mmol/L glucose as final concentrations, and the ^3H labeled glucose was then added to the cells for 15 min. […] The radioactivity retained by the cell lysates was determined by a scintillation counter. […]

The test system of assay [6] is 3T3-L1 preadipocytes. Conditions: α-PGG used at 20 μM with MDI; cited from earlier work.

For the compound “6-chloro-1,2,3,4-tetragalloyl-D-quinovopyranose [6Cl-TGQ]”, the Akt phosphorylation result in assay [1] is “can induce IR and Akt phosphorylation”. In assay [2] (30 μM compound), the “Glut4 translocation to the cell membrane” value is recorded as “induced Glut4 translocation to the cell membrane”. For the same compound, in assay [3], the IR phosphorylation result is “can induce IR and Akt phosphorylation”.
“6-chloro-1,2,3,4-tetragalloyl-D-quinovopyranose [6Cl-β-TGQ]”: in assay [4], the “inhibition of adipocyte differentiation” value was “inhibit adipocyte differentiation”.
On to `O=C(O[C@H]1O[C@H](CCl)[C@@H](OC(=O)c2cc(O)c(O)c(O)c2)[C@H](OC(=O)c2cc(O)c(O)c(O)c2)[C@H]1OC(=O)c1cc(O)c(O)c(O)c1)c1cc(O)c(O)c(O)c1` [6Cl-α-TGQ, 6-chloro-α-1,2,3,4-tetragallolyl-D-quinovopyranose], for which the “Glut4 translocation to the cell membrane” value in assay [2] (30 μM compound) is given as “induced Glut4 translocation to the cell membrane”. The “inhibition of adipocyte differentiation” value in assay [4] was “inhibit adipocyte differentiation”. The “more glucose transported than the insulin controls” value in assay [5] (30 μM compound, insulin control 1 μM, FIG. 2) turned out to be 10%. The “glucose transport activity compared with insulin” value in assay [5] (insulin 1 μM, FIG. 2) is reported as “as active as insulin”. In addition, the “glucose transport inducing activity compared with α-PGG” value is given as “more active than pentagalloyl-α-D-glucopyranose (α-PGG)” in assay [5] (FIG. 2) and “more active than α-PGG” in assay [5] (FIG. 2, listed as 6Cl-α: TGQ).
As to `O=C(OC[C@H]1O[C@H](OC(=O)c2cc(O)c(O)c(O)c2)[C@H](OC(=O)c2cc(O)c(O)c(O)c2)[C@@H](OC(=O)c2cc(O)c(O)c(O)c2)[C@@H]1OC(=O)c1cc(O)c(O)c(O)c1)c1cc(O)c(O)c(O)c1` [α-PGG, pentagalloyl-α-D-glucopyranose], the “inhibition of adipocyte differentiation (known)” value in assay [6] is “known to inhibit the differentiation”.
Take `CC1OC(OC(=O)c2cc(O)c(O)c(O)c2)C(OC(=O)c2cc(O)c(O)c(O)c2)C(OC(=O)c2cc(O)c(O)c(O)c2)C1OC(=O)c1cc(O)c(O)c(O)c1` (stereo not drawn) [α-TGQ]: the “glucose transport stimulatory activity” value in assay [5] (various concentrations) is “active”.
“insulin: the hormone which regulates glucose utilization; positive control”: the “Glut4 translocation to the cell membrane” value in assay [2] (1 μM insulin) is given as “induced Glut4 translocation to the cell membrane”.
